Test results published in patent US20250262279A1, “DOSE REGIMEN FOR LONG-ACTING GLP1/GLUCAGON RECEPTOR AGONISTS” (Boehringer Ingelheim International GmbH, priority 2021, published 2025).
Like-named read-outs stand apart in the source and are kept apart here.

Columns and labels:
[1] = Example 1: plasma pharmacokinetics; format: in vivo; details: human, sc; for Cmax: read-out: Cmax (gMean)
[2] = plasma half-life in humans; format: in vivo; details: human, estimated
[3] = Example 2 Phase I study in healthy Japanese men: safety and tolerability; format: in vivo, human
Source text: This study was a randomised, placebo-controlled, single-blind, and parallel-group clinical trial with up to 3 dose-escalation schemes (Dose Groups [DGs]1 to 3) in healthy Japanese male subjects with BMI 23 to 40 kg/m^2. The weekly (DG1 and DG2) or twice a week (DG3) dosing in this scheme allowed for immediate clinical evaluation whether a further increase in the cumulative weekly dose was safe and well tolerated. The treatment duration was 16 weeks in total including a dose escalation phase to minimize Gastrointestinal (GI) Adverse Events (AEs) of Compound I. This was followed by a 4-week follow-up period.
The primary endpoint to assess the safety and tolerability of Compound I was the cumulative percentage (%) of subjects withdrawn from the up-titration by the dose escalation scheme.
• AEs (including clinically relevant findings from the physical examination) • Safety laboratory tests • 12-lead electrocardiogram (ECG) • Continuous ECG monitoring • Vital signs (blood pressure, pulse rate) • Columbia-Suicide Severity Rating Scale (C-SSRS) • Change from baseline in heart rate following treatment with Compound I relative to placebo (until 24 hours after Compound I administration) • The cumulative number [N (%)] of subjects withdrawn from the up-titration by the dose escalation scheme and week
The main objective of this trial was to assess the safety and tolerability of Compound I as well as PK and PD parameters by using descriptive statistics for all endpoints, which were compared across treatment groups. Further analysis comprised linear modelling for attainment of steady state in DG1.

For `CC[C@H](C)[C@H](NC(=O)[C@H](Cc1ccccc1)NC(=O)[C@H](CC(=O)O)NC(=O)[C@H](CCCCN)NC(=O)[C@H](C)NC(=O)[C@H](C)NC(=O)[C@H](CCCNC(=N)N)NC(=O)[C@H](CCC(=O)O)NC(=O)[C@H](CC(=O)O)NC(=O)[C@H](CC(C)C)NC(=O)[C@H](Cc1ccc(O)cc1)NC(=O)[C@H](CCCCN)NC(=O)[C@H](CO)NC(=O)[C@H](Cc1ccc(O)cc1)NC(=O)[C@H](CC(=O)O)NC(=O)[C@H](CO)NC(=O)[C@@H](NC(=O)[C@H](Cc1ccccc1)NC(=O)[C@@H](NC(=O)CNC(=O)[C@H](CCC(N)=O)NC(=O)C1(NC(=O)[C@@H](N)Cc2c[nH]cn2)CCC1)[C@@H](C)O)[C@@H](C)O)C(=O)N[C@@H](CCCCNC(=O)CNC(=O)CNC(=O)[C@H](CO)NC(=O)CNC(=O)[C@H](CO)NC(=O)CNC(=O)CC[C@H](NC(=O)CCCCCCCCCCCCCCCCC(=O)O)C(=O)O)C(=O)N[C@@H](Cc1c[nH]c2ccccc12)C(=O)N[C@@H](CC(C)C)C(=O)N[C@@H](CCC(=O)O)C(=O)N[C@@H](CO)C(=O)N[C@@H](C)C(N)=O` [Compound I], the AUC(0-t) ([1]; 1.8 mg, Ex.1 weekly scheme 4, wk 19, 1.8 mg sc, read-out: AUC0-168 (gMean)) was 6.66 µM·h, the Cmax ([1]; 1.8 mg, Ex.1 weekly scheme 4, wk 19, 1.8 mg sc) was 60.2 nM and the AUC(0-t) ([1]; 1.8 mg, Ex.1 weekly scheme 5, wk 5, 1.8 mg sc, read-out: AUC0-168 (gMean)) was 6.08 µM·h. For the same compound, the Cmax ([1]; 1.8 mg, Ex.1 weekly scheme 5, wk 5, 1.8 mg sc) was 57.9 nM, the AUC(0-t) ([1]; 1.8 mg, Ex.1 weekly scheme 5, wk 6, 1.8 mg sc, read-out: AUC0-168 (gMean)) was 6.77 µM·h and the Cmax ([1]; 1.8 mg, Ex.1 weekly scheme 5, wk 6, 1.8 mg sc) was 63.3 nM. The AUC(0-t) ([1]; 2 mg, Ex.1 weekly scheme 2, wk 5, 2.0 mg sc, read-out: AUC0-168 (gMean)) was 6.55 µM·h, the Cmax ([1]; 2 mg, Ex.1 weekly scheme 2, wk 5, 2.0 mg sc) was 57.7 nM and the AUC(0-t) ([1]; 2.1 mg, Ex.1 twice weekly scheme, wk 13, 2.1 mg sc, read-out: AUC0-72 (gMean)) was 6.7 µM·h. The Cmax ([1]; 2.1 mg, Ex.1 twice weekly scheme, wk 13, 2.1 mg sc) was 108 nM, the AUC(0-t) ([1]; 2.4 mg, Ex.1 twice weekly scheme, wk 15, 2.4 mg sc, read-out: AUC0-72 (gMean)) was 7.62 µM·h and the Cmax ([1]; 2.4 mg, Ex.1 twice weekly scheme, wk 15, 2.4 mg sc) was 132 nM. The AUC(0-t) ([1]; 2.4 mg, Ex.1 twice weekly scheme, wk 16, 2.4 mg sc, read-out: AUC0-72 (gMean)) was 8.55 µM·h, the Cmax ([1]; 2.4 mg, Ex.1 twice weekly scheme, wk 16, 2.4 mg sc) was 142 nM and the AUC(0-t) ([1]; 2.4 mg, Ex.1 weekly scheme 2, wk 6, 2.4 mg sc, read-out: AUC0-168 (gMean)) was 8.19 µM·h. For the same compound, the Cmax ([1]; 2.4 mg, Ex.1 weekly scheme 2, wk 6, 2.4 mg sc) was 70.6 nM, the AUC(0-t) ([1]; 2.4 mg, Ex.1 weekly scheme 3, wk 5, 2.4 mg sc, read-out: AUC0-168 (gMean)) was 7.19 µM·h and the Cmax ([1]; 2.4 mg, Ex.1 weekly scheme 3, wk 5, 2.4 mg sc) was 63 nM. The AUC(0-t) ([1]; 2.4 mg, Ex.1 weekly scheme 4, wk 13, 2.4 mg sc, read-out: AUC0-168 (gMean)) was 10.3 µM·h, the Cmax ([1]; 2.4 mg, Ex.1 weekly scheme 4, wk 13, 2.4 mg sc) was 88.3 nM and the AUC(0-t) ([1]; 2.4 mg, Ex.1 weekly scheme 4, wk 15, 2.4 mg sc, read-out: AUC0-168 (gMean)) was 10.9 µM·h. For the same compound, the Cmax ([1]; 2.4 mg, Ex.1 weekly scheme 4, wk 15, 2.4 mg sc) was 87.1 nM, the AUC(0-t) ([1]; 2.4 mg, Ex.1 weekly scheme 4, wk 16, 2.4 mg sc, read-out: AUC0-168 (gMean)) was 11.5 µM·h and the Cmax ([1]; 2.4 mg, Ex.1 weekly scheme 4, wk 16, 2.4 mg sc) was 97.3 nM. The AUC(0-t) ([1]; 2.4 mg, Ex.1 weekly scheme 5, wk 7, 2.4 mg sc, read-out: AUC0-168 (gMean)) was 9.08 µM·h, the Cmax ([1]; 2.4 mg, Ex.1 weekly scheme 5, wk 7, 2.4 mg sc) was 77.8 nM and the AUC(0-t) ([1]; 3 mg, Ex.1 weekly scheme 3, wk 6, 3.0 mg sc, read-out: AUC0-168 (gMean)) was 10.4 µM·h. For the same compound, the Cmax ([1]; 3 mg, Ex.1 weekly scheme 3, wk 6, 3.0 mg sc) was 88.7 nM, the AUC(0-t) ([1]; 3 mg, Ex.1 weekly scheme 5, wk 9, 3.0 mg sc, read-out: AUC0-168 (gMean)) was 11.3 µM·h and the Cmax ([1]; 3 mg, Ex.1 weekly scheme 5, wk 9, 3.0 mg sc) was 102 nM. The AUC(0-t) ([1]; 3.6 mg, Ex.1 weekly scheme 5, wk 11, 3.6 mg sc, read-out: AUC0-168 (gMean)) was 14.2 µM·h, the Cmax ([1]; 3.6 mg, Ex.1 weekly scheme 5, wk 11, 3.6 mg sc) was 129 nM and the AUC(0-t) ([1]; 4.2 mg, Ex.1 weekly scheme 5, wk 13, 4.2 mg sc, read-out: AUC0-168 (gMean)) was 15.9 µM·h. The Cmax ([1]; 4.2 mg, Ex.1 weekly scheme 5, wk 13, 4.2 mg sc) was 134 nM, the AUC(0-t) ([1]; 4.8 mg, Ex.1 weekly scheme 5, wk 15, 4.8 mg sc, read-out: AUC0-168 (gMean)) was 18.7 µM·h and the Cmax ([1]; 4.8 mg, Ex.1 weekly scheme 5, wk 15, 4.8 mg sc) was 161 nM. The AUC(0-t) ([1]; 4.8 mg, Ex.1 weekly scheme 5, wk 16, 4.8 mg sc, read-out: AUC0-168 (gMean)) was 19.7 µM·h, the Cmax ([1]; 4.8 mg, Ex.1 weekly scheme 5, wk 16, 4.8 mg sc) was 193 nM and the half-life [2] was about 110 h. For the same compound, the “AEs in the cardiac disorder class” value ([3]; Ex.2) was “no AEs reported”, the clinical laboratory values ([3]; Ex.2) was “Findings of clinical relevance were not observed” and the “deaths and AEs of special interest” value ([3]; Ex.2) was “neither deaths nor AEs of special interest reported”. For the same compound, the “vital signs, ECG evaluation, local tolerability, suicidal risk assessment” value ([3]; Ex.2) was “No clinically relevant findings”, the “Subjects with investigator defined drug-related AEs” value ([3]; Ex.2 Cmp I Total) was 27 N and the “Number of subjects withdrawn from the up-titration” value (“Number of subjects withdrawn” for short) ([3]; Ex.2 Compound I Total) was 10 N. The pulse rate ([3]; Ex.2 Compound I dosing groups) was “expected increase in pulse rate”, the “Number of subjects withdrawn” value ([3]; Ex.2 DG1) was 2 N and the “subjects with AE decreased appetite” value ([3]; Ex.2 DG1) was 8 subjects. For the same compound, the “subjects with AE decreased appetite” value ([3]; Ex.2 DG1, of 9 trial subjects) was 88.9%, the “Number of subjects withdrawn” value ([3]; Ex.2 DG2) was 6 N and the “subjects with AE decreased appetite” value ([3]; Ex.2 DG2) was 9 subjects. The “subjects with severe vomiting” value ([3]; Ex.2 DG2) was 1 subject, the “subjects with AE decreased appetite” value ([3]; Ex.2 DG2, of 9 trial subjects) was 100.0% and the “subjects with severe vomiting” value ([3]; Ex.2 DG2, of 9 trial subjects) was 11.1%. For the same compound, the “subjects with AE decreased appetite” value ([3]; Ex.2 DG3) was 7 subjects, the “subjects with severe diarrhoea” value ([3]; Ex.2 DG3) was 1 subject and the “Number of subjects withdrawn” value ([3]; Ex.2 DG3 (twice weekly)) was 2 N. For the same compound, the “subjects with AE decreased appetite” value ([3]; Ex.2 DG3, of 9 trial subjects) was 77.8% and the “subjects with severe diarrhoea” value ([3]; Ex.2 DG3, of 9 trial subjects) was 11.1%.
